The source of these data is patent publication US8653276B2 (SANOFI, priority 2008, dated 2014).

The structures appear in SMILES notation. Structures can show the parent of a compound that is named as a salt.

With `COC(=O)C1(NC(=O)c2ccc(-c3ccccc3C)c(-c3ccc(Cl)c(OCCCN(C)C)c3)n2)CCCCC1` (as salt: hydrochloride) [Compound 4, methyl 1-({[6-{4-chloro-3-[3-(dimethylamino)propoxy]phenyl}-5-(2-methylphenyl)pyridin-2-yl]carbonyl}amino)cyclohexanecarboxylate], the melting point stood at 115 °C. Compound `Cc1ccccc1-c1ccc(C(=O)N[C@@H](CCO)C(C)(C)C)nc1-c1ccc(Cl)c(OCCCN(C)C)c1` (as salt: hydrochloride) came in with a melting point of 93 °C.

In the case of `COC(=O)C1(NC(=O)c2ccc(-c3ccccc3Cl)c(-c3ccc(Cl)c(OCCCN(C)C)c3)n2)C2CC3CC(C2)CC1C3` (stereo not shown) (as salt: hydrochloride) [Compound 26, methyl 2-({[6-{4-chloro-3-[3-(dimethylamino)propoxy]phenyl}-5-(2-chlorophenyl)pyridin-2-yl]carbonyl}amino)adamantane-2-carboxylate], the melting point stood at 135 °C. Compound `COC(=O)C1(NC(=O)c2ccc(-c3ccc(O)cc3C)c(-c3ccc(Cl)c(OCCCN(C)C)c3)n2)CCCCC1` (as salt: hydrochloride) [Compound 2, methyl 1-({[6-{4-chloro-3-[3-(dimethylamino)propoxy]phenyl}-5-(4-hydroxy-2-methylphenyl)pyridin-2-yl]carbonyl}amino)cyclohexanecarboxylate] registered a melting point of 270 °C. The same measure for `COC(=O)C1(NC(=O)c2ccc(-c3cc4c(cc3C)OCO4)c(-c3ccc(Cl)c(OCCCN(C)C)c3)n2)CCCCC1` (as salt: hydrochloride) [Compound 11, methyl 1-({[6-{4-chloro-3-[3-(dimethylamino)propoxy]phenyl}-5-(6-methyl-1,3-benzodioxol-5-yl)pyridin-2-yl]carbonyl}amino)cyclohexanecarboxylate]: 138 °C.

The compound `COC(=O)C1(NC(=O)c2ccc(-c3ncc(C)cc3Cl)c(-c3ccc(Cl)c(OCCCN(C)C)c3)n2)CCCCC1` (as salt: hydrochloride) [Compound 5, methyl 1-{[(3-chloro-2′-{4-chloro-3-[3-(dimethylamino)propoxy]phenyl}-5-methyl-2,3′-bipyridin-6′-yl)carbonyl]amino}cyclohexanecarboxylate] came in with a melting point of 152 °C.

In turn, `CCOc1ccc(Cl)c(-c2ncc(C(=O)N[C@@H](CC(=O)OC)C(C)(C)C)nc2-c2ccc(Cl)c(OCCCN(C)C)c2)c1` (as salt: hydrochloride) [Compound 24, methyl(3S)-3-({[6-{4-chloro-3-[3-(dimethylamino)propoxy]phenyl}-5-(2-chloro-5-ethoxyphenyl)pyrazin-2-yl]carbonyl}amino)-4,4-dimethylpentanoate] returned a melting point of 112 °C.
